What all share (type): in vivo
The subject of assay [1] is Annual bluegrass. Description: Post-emergence herbicide test. Conditions: 1.12 kg/ha, read-out: % plant inhibition (Anbg). The method in brief: (§1)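 Seeds or propagules are pressed into compacted topsoil, covered and sub-irrigated in the greenhouse. At two to three weeks the plants are atomizer-sprayed (170.3 kPa, 1870 L/Ha, ~0.4% emulsifier by volume). Percent inhibition relative to control is observed about 10–14 days later.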

For assay [2], the system named is Indian Mustard. Description: Post-emergence herbicide test. Conditions: Brassica juncea, 1.12 kg/ha, read-out: % plant inhibition (Inmu). In short, it runs like this: as §1
For assay [3], the system named is Cocklebur. Description: Post-emergence herbicide test. Particulars: Xanthium strumarium, 1.12 kg/ha, read-out: % plant inhibition (Cobu). In short, it runs like this:
as §1

The subject of assay [4] is Velvetleaf. Nature of the assay: Post-emergence herbicide test. Particulars: Abutilon theophrasti, 1.12 kg/ha, read-out: % plant inhibition (Vele). The method in brief: as §1
Assay [5] deals with Downy Brome. Nature of the assay: Post-emergence herbicide test. Conditions: Bromus tectorum, 1.12 kg/ha, read-out: % plant inhibition (Dobr). The method in brief: as §1
Assay [6] relates to Yellow nutsedge. Description: Post-emergence herbicide test. Particulars: Cyperus, 1.12 kg/ha, read-out: % plant inhibition (Yens). In short, it runs like this:
as §1

The subject of assay [7] is Barnyardgrass. Nature of the assay: Post-emergence herbicide test. Particulars: Echinochloa crus-galli, 1.12 kg/ha, read-out: % plant inhibition (Bygr). The method in brief: as §1
The subject of assay [8] is Wild buckwheat. Nature of the assay: Post-emergence herbicide test. Particulars: Fallopia convolvulus, 1.12 kg/ha, read-out: % plant inhibition (Wibw). In short, it runs like this: as §1
Assay [9] has as its system Morningglory. Nature of the assay: Post-emergence herbicide test. Particulars: Ipomoea, 1.12 kg/ha, read-out: % plant inhibition (Mogl). In short, it runs like this:
as §1

Assay [10] has as its system Seedling johnsongrass. Description: Post-emergence herbicide test. Conditions: Sorghum halepense, 1.12 kg/ha, read-out: % plant inhibition (Sejg). The method in brief:
as §1

Assay [11] deals with Annual bluegrass. Nature of the assay: Pre-emergence herbicide test. Particulars: 1.12 kg/ha, read-out: % plant inhibition (Anbg). The method in brief:
(§2)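 In this greenhouse test, seeds on compacted topsoil receive the active ingredient in an organic solvent or aqueous carrier, are covered with untreated soil and watered from below; percent inhibition is scored approximately 11 days later.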

Assay [12] concerns Indian Mustard. Nature of the assay: Pre-emergence herbicide test. Conditions: Brassica juncea, 1.12 kg/ha, read-out: % plant inhibition (Inmu). In short, it runs like this: as §2
Assay [13] has as its system Cocklebur. Description: Pre-emergence herbicide test. Particulars: Xanthium strumarium, 1.12 kg/ha, read-out: % plant inhibition (Cobu). The method in brief: as §2
Assay [14] relates to Velvetleaf. Nature of the assay: Pre-emergence herbicide test. Particulars: Abutilon theophrasti, 1.12 kg/ha, read-out: % plant inhibition (Vele). The method in brief:
as §2

Assay [15] has as its system Downy Brome. Description: Pre-emergence herbicide test. Particulars: Bromus tectorum, 1.12 kg/ha, read-out: % plant inhibition (Dobr). The method in brief:
as §2

Assay [16] has as its system Yellow nutsedge. Description: Pre-emergence herbicide test. Particulars: Cyperus, 1.12 kg/ha, read-out: % plant inhibition (Yens). The method in brief: as §2
The subject of assay [17] is Barnyardgrass. Nature of the assay: Pre-emergence herbicide test. Conditions: Echinochloa crus-galli, 1.12 kg/ha, read-out: % plant inhibition (Bygr). In short, it runs like this: as §2
The test system of assay [18] is Wild buckwheat. Nature of the assay: Pre-emergence herbicide test. Particulars: Fallopia convolvulus, 1.12 kg/ha, read-out: % plant inhibition (Wibw). In short, it runs like this: as §2
The test system of assay [19] is Morningglory. Description: Pre-emergence herbicide test. Particulars: Ipomoea, 1.12 kg/ha, read-out: % plant inhibition (Mogl). In short, it runs like this: as §2
The subject of assay [20] is Seedling johnsongrass. Description: Pre-emergence herbicide test. Particulars: Sorghum halepense, 1.12 kg/ha, read-out: % plant inhibition (Sejg). In short, it runs like this:
as §2

The results in this text go back to patent publication US5530126A, “Process for the preparation of substituted 6-(pyrazol-3yl)-1,4-benzoxazin-3-ones” (Monsanto Company, priority 1994, dated 1996).

By inhibition is commonly meant the relative decrease from the control value, in per cent.

As for `Cn1nc(-c2cc(C3SCCS3)c(Cl)cc2F)c(Cl)c1C(F)(F)F` [Compound 101], the inhibition at 1120 g/ha in the assay on Annual bluegrass [1] stood at 90%; in the assay on Indian Mustard [2], 100%; in the assay with Cocklebur [3], 100%; in the assay with Velvetleaf [4], 100%; in the assay on Downy Brome [5], 100%; with Yellow nutsedge [6], 30%. The inhibition at 1120 g/ha was determined as 100% with Barnyardgrass [7]; 100% with Wild buckwheat [8]; 100% in the assay on Morningglory [9]; 70% in the assay with Seedling johnsongrass [10]; 70% in the assay on Annual bluegrass [11]; 100% in the assay on Indian Mustard [12]. Besides, the inhibition at 1120 g/ha with Cocklebur [13] turned out to be 30%; in the assay on Velvetleaf [14], 100%; in the assay with Downy Brome [15], 80%; with Yellow nutsedge [16], 0%; in the assay on Barnyardgrass [17], 40%; in the assay with Wild buckwheat [18], 90%. Also, the inhibition at 1120 g/ha in the assay with Morningglory [19] and in the assay on Seedling johnsongrass [20] was 80% each time.
For `Cn1nc(-c2cc(C3OCCS3)c(Cl)cc2F)c(Cl)c1C(F)(F)F` (centres unmarked) [Compound 102], the inhibition at 1120 g/ha came to 90% in the assay on Annual bluegrass [1]; 100% in the assay on Indian Mustard [2]; 60% in the assay on Cocklebur [3]; 100% with Velvetleaf [4]; 100% in the assay on Downy Brome [5]; 20% in the assay on Yellow nutsedge [6]. Besides, the inhibition at 1120 g/ha was found to be 90% in the assay on Barnyardgrass [7]; 100% in the assay with Wild buckwheat [8]; 100% in the assay on Morningglory [9]; 100% with Seedling johnsongrass [10]; 60% in the assay with Annual bluegrass [11]; 100% in the assay with Indian Mustard [12]. Besides, the inhibition at 1120 g/ha in the assay on Cocklebur [13] was found to be 30%; in the assay on Velvetleaf [14] it was 100%; in the assay on Downy Brome [15] it was 80%; with Yellow nutsedge [16], 20%; in the assay on Barnyardgrass [17] it was 80%; in the assay with Wild buckwheat [18] it was 100%. Further, the values for the inhibition at 1120 g/ha in the assay with Morningglory [19] and in the assay on Seedling johnsongrass [20] were 100% and 90%, respectively.
As for `Cn1nc(-c2cc(C(C)(C)C#N)c(Cl)cc2F)c(Cl)c1C(F)(F)F` [Compound 103], the inhibition at 1120 g/ha came to 40% in the assay on Annual bluegrass [1]; 70% in the assay with Indian Mustard [2]; 60% in the assay on Cocklebur [3]; 100% with Velvetleaf [4]; 30% in the assay on Downy Brome [5]; 10% with Yellow nutsedge [6]. Further, the inhibition at 1120 g/ha in the assay with Barnyardgrass [7] worked out at 80%; with Wild buckwheat [8], 100%; in the assay with Morningglory [9], 80%; in the assay with Seedling johnsongrass [10], 70%; in the assay on Annual bluegrass [11] it was 20%; in the assay with Indian Mustard [12] it was 40%. Besides, the inhibition at 1120 g/ha was 0% in the assay with Cocklebur [13]; 50% in the assay with Velvetleaf [14]; 70% in the assay on Downy Brome [15]; 0% in the assay with Yellow nutsedge [16]; 20% with Barnyardgrass [17]; 100% with Wild buckwheat [18]. The values for the inhibition at 1120 g/ha in the assay on Morningglory [19] and in the assay on Seedling johnsongrass [20] were 60% and 40%, respectively.
Take `CCOC(=O)CON=C(C)c1cc(-c2nn(C)c(C(F)(F)F)c2Cl)c(F)cc1Cl` [Compound 104]: the inhibition at 1120 g/ha in the assay on Annual bluegrass [1] was 30%; with Indian Mustard [2] it was 40%; in the assay on Cocklebur [3] it was 70%; in the assay on Velvetleaf [4], 100%; in the assay on Downy Brome [5], 40%; with Yellow nutsedge [6] it was 20%. In addition, the inhibition at 1120 g/ha was 50% with Barnyardgrass [7]; 100% with Wild buckwheat [8]; 100% in the assay with Morningglory [9]; 80% in the assay on Seedling johnsongrass [10]; 20% with Annual bluegrass [11]; 80% in the assay with Indian Mustard [12]. Also, the inhibition at 1120 g/ha was 20% with Cocklebur [13]; 90% with Velvetleaf [14]; 80% in the assay on Downy Brome [15]; 0% with Yellow nutsedge [16]; 10% with Barnyardgrass [17]; 70% in the assay with Wild buckwheat [18]. For the same compound, the inhibition at 1120 g/ha in the assay on Morningglory [19] and in the assay with Seedling johnsongrass [20] was 80% in each case.
Take `CC(=NOCC(N)=O)c1cc(-c2nn(C)c(C(F)(F)F)c2Cl)c(F)cc1Cl` [Compound 105]: the inhibition at 1120 g/ha in the assay with Annual bluegrass [1] was determined as 30%; in the assay with Indian Mustard [2], 30%; in the assay on Cocklebur [3], 20%; in the assay on Velvetleaf [4] it was 80%; with Downy Brome [5], 0%; with Yellow nutsedge [6] it was 20%. Also, the inhibition at 1120 g/ha in the assay on Barnyardgrass [7] is 20%; in the assay on Wild buckwheat [8], 100%; in the assay with Morningglory [9], 40%; in the assay with Seedling johnsongrass [10] it was 20%; in the assay with Annual bluegrass [11], 0%; in the assay on Indian Mustard [12], 80%. In addition, the inhibition at 1120 g/ha in the assay on Cocklebur [13] came to 10%; in the assay with Velvetleaf [14], 90%; in the assay with Downy Brome [15], 40%; with Yellow nutsedge [16], 20%; in the assay with Barnyardgrass [17] it was 70%; with Wild buckwheat [18] it was 80%. The inhibition at 1120 g/ha in the assay with Morningglory [19] came to 80%; in the assay with Seedling johnsongrass [20], 60%.
As for `CC(C#N)c1cc(-c2nn(C)c(C(F)(F)F)c2Cl)c(F)cc1Cl` (centres unmarked) [Compound 106], the inhibition at 1120 g/ha in the assay with Annual bluegrass [1] amounted to 30%; with Indian Mustard [2], 60%; in the assay on Cocklebur [3], 60%; in the assay on Velvetleaf [4], 100%; in the assay with Downy Brome [5], 20%; in the assay on Yellow nutsedge [6], 10%. The inhibition at 1120 g/ha with Barnyardgrass [7] stood at 60%; in the assay on Wild buckwheat [8], 90%; in the assay with Morningglory [9], 100%; in the assay on Seedling johnsongrass [10] it was 40%; in the assay with Annual bluegrass [11] it was 30%; with Indian Mustard [12], 90%. Besides, the inhibition at 1120 g/ha was found to be 20% in the assay with Cocklebur [13]; 80% in the assay with Velvetleaf [14]; 80% with Downy Brome [15]; 0% in the assay on Yellow nutsedge [16]; 80% with Barnyardgrass [17]; 100% in the assay with Wild buckwheat [18]. The inhibition at 1120 g/ha with Morningglory [19] worked out at 60%; in the assay with Seedling johnsongrass [20], 80%.
In the case of `CC(O)c1cc(-c2nn(C)c(C(F)(F)F)c2Cl)c(F)cc1Cl` (centres unmarked) [Compound 107], the inhibition at 1120 g/ha in the assay on Annual bluegrass [1] came to 0%; with Indian Mustard [2] it was 40%; with Cocklebur [3] it was 50%; in the assay on Velvetleaf [4], 90%; in the assay on Downy Brome [5], 0%; in the assay on Yellow nutsedge [6] it was 10%. Moreover, the inhibition at 1120 g/ha worked out at 30% in the assay with Barnyardgrass [7]; 90% with Wild buckwheat [8]; 50% in the assay with Morningglory [9]; 20% in the assay on Seedling johnsongrass [10]; 20% with Annual bluegrass [11]; 80% with Indian Mustard [12]. Besides, the inhibition at 1120 g/ha in the assay on Cocklebur [13] stood at 20%; in the assay on Velvetleaf [14], 90%; in the assay on Downy Brome [15], 30%; with Yellow nutsedge [16] it was 0%; in the assay on Barnyardgrass [17], 80%; in the assay with Wild buckwheat [18], 80%. For the same compound, the results for the inhibition at 1120 g/ha in the assay with Morningglory [19] and in the assay with Seedling johnsongrass [20] were 100% and 40%, respectively.
